Measured values published in US12162867B2, “Inhibitors of RNA helicase DHX9 and uses thereof” (ACCENT THERAPEUTICS, INC., priority 2022, dated 2024).
Where two headings read alike, the source gives them in different places.

Experiments:
Assay type in all cases: cell-based
[1] = system: circBRIP1 in HCT116 cells; test: DHX9 circBRIP1 cellular target engagement TaqMan Multiplex assay (qPCR); conditions: Homo sapiens, read-out: DHX9 Cellular Target Engagement EC50
[2] = system: LS411N cells; test: DHX9 cellular proliferation assay (CellTiter-Glo), LS411N (CRC-MSI); conditions: Homo sapiens, LS-411N, LS411N, performed at Pharmaron, read-out: LS411N (CRC-MSI-H) Antiproliferative IC50
[3] = system: NCI-H747 cells; test: DHX9 cellular proliferation assay (CellTiter-Glo), NCI-H747 (CRC-MSS); conditions: Homo sapiens, performed at Pharmaron, read-out: H747 (CRC-MSS) Antiproliferative IC50
[4] = system: circBRIP1 in HCT116 cells; test: DHX9 circBRIP1 cellular target engagement SYBR Green assay (qPCR); conditions: Homo sapiens, HCT-116, circBRIP1, HCT116 cells; ^+ SyBr assay was used; read-out: DHX9 Cellular Target Engagement EC50
[5] = HCT-116, 72 h, circBRIP1, HCT116 cells, 72 hours, Taqman assay (marked *)

Structure (SMILES)	EC50 ([1]; HCT-116, circBRIP1, HCT116 cells, * Taqman assay was used) [nM]	IC50 [2] [nM]	IC50 ([3]; NCI-H747, NCI-H747) [µM]	EC50 [1, 5] [nM]	IC50 ([2]; CRC-MSI-H) [nM]	IC50 ([3]; NCI-H747, NCI-H747, CRC-MSS) [µM]	EC50 [4] [nM]
Cc1sc(C(=O)Nc2cc(Cl)cc(NS(C)(=O)=O)c2)cc1-c1ncccc1OC(C)c1cc(F)cc(F)c1 (single isomer, unassigned) [Example 633]	46	10.4	6.46	–	–	–	–
CCS(=O)(=O)Nc1cc(Cl)cc(NC(=O)c2cc(-c3ccc(F)cn3)c(C)s2)c1 [Example 346]	–	–	–	43.8	71.6	7.34	–
CCS(=O)(=O)Nc1cc(Cl)cc(NC(=O)c2cc(-c3ncc(F)cc3F)c(C)s2)c1 [Example 347]	–	–	–	96.8	160	> 10	–
Cc1sc(C(=O)Nc2cc(Cl)cc(NS(C)(=O)=O)c2)cc1-c1ncc(F)cc1F [Example 349]	–	–	–	58.2	154	> 10	–
COc1cc(F)cnc1-c1cc(C(=O)Nc2cc(Cl)cc(NS(C)(=O)=O)c2)sc1C [Example 351]	–	–	–	28.6	82	> 10	–
COc1ccc(-c2cc(C(=O)Nc3cc(Cl)cc(NS(C)(=O)=O)c3)sc2C)nc1 [Example 352]	–	–	–	21	50	8.75	–
CCS(=O)(=O)Nc1cc(Cl)cc(NC(=O)c2cc(-c3ncc(OC)cn3)c(C)s2)c1 [Example 353]	–	–	–	94	111	8.49	–
CCS(=O)(=O)Nc1cc(Cl)cc(NC(=O)c2cc(-c3ncc(F)cc3OC)c(C)s2)c1 [Example 354]	–	–	–	34.5	71.5	8.06	–
COc1cnc(-c2cc(C(=O)Nc3cc(Cl)cc(NS(C)(=O)=O)c3)sc2C)c(F)c1 [Example 358]	–	–	–	53.3	129	6.87	–
CCS(=O)(=O)Nc1cc(Cl)cc(NC(=O)c2cc(-c3ncc(OC)cc3F)c(C)s2)c1 [Example 360]	–	–	–	52.1	235	7.07	–
COc1cnc(-c2cc(C(=O)Nc3cc(Cl)cc(NS(C)(=O)=O)c3)sc2C)c(C)c1 [Example 361]	–	–	–	43.2	361	6.25	–
CCOc1cnc(-c2cc(C(=O)Nc3cc(Cl)cc(NS(=O)(=O)CC)c3)sc2C)nc1 [Example 365]	–	–	–	33.9	116	> 10	–
CS(=O)(=O)Nc1cc(Cl)cc(NC(=O)c2cc(-c3ncc(C(F)(F)F)cn3)cs2)c1 [Example 369]	–	–	–	86.8	227	> 10	–
Cc1cc(C#N)cnc1-c1cc(C(=O)Nc2cc(Cl)cc(NS(C)(=O)=O)c2)sc1C [Example 376]	–	–	–	69.9	303	> 10	–
Cc1cc(C(=O)Nc2cc(Cl)cc(NS(C)(=O)=O)c2)cn1-c1ccc(N2CC(F)C2)cn1 [Example 395]	–	117	9.22	–	–	–	23.8
Cc1cc(C(=O)Nc2cc(Cl)cc(NS(C)(=O)=O)c2)cn1-c1ccc(N2CCC(F)(F)C2)cn1 [Example 396]	–	122	> 10	–	–	–	33
Cc1cc(C(=O)Nc2cc(Cl)cc(NS(C)(=O)=O)c2)cn1-c1ccc(N2CCC2)cn1 [Example 397]	–	46.5	6.94	–	–	–	26.3
Cc1cc(C(=O)Nc2cc(Cl)cc(NS(C)(=O)=O)c2)cn1-c1ncc(N2CCC2)cn1 [Example 398]	–	116	> 10	–	–	–	41.1
Cc1cc(C(=O)Nc2cc(Cl)cc(NS(C)(=O)=O)c2)cn1-c1ccc(N2CC(F)(F)C2)cn1 [Example 399]	–	95.2	8.89	–	–	–	34.4
Cc1cc(C(=O)Nc2cc(Cl)cc(NS(C)(=O)=O)c2)cn1-c1ccc(N2CCCC2=O)cn1 [Example 410]	–	373	> 10	–	–	–	21.2
Cc1cc(C(=O)Nc2cc(Cl)cc(NS(C)(=O)=O)c2)cn1-c1ccc(N2CC3CC3C2)cn1 (stereo not drawn) [Example 411]	–	142	> 10	–	–	–	74.1
Cc1cc(C(=O)Nc2cc(Cl)cc(NS(C)(=O)=O)c2)cn1-c1ncc(N2CC(F)(F)C2)cn1 [Example 418]	–	139	> 10	–	–	–	67.4
CN1C(=O)N(c2csc(C(=O)Nc3cc(Cl)cc(NS(C)(=O)=O)c3)c2)C(=O)C1(C)C [Example 432]	–	141	> 10	–	–	–	112
COc1cnn(-c2cc(C(=O)Nc3cc(Cl)cc(NS(C)(=O)=O)c3)sc2C)c1 [Example 436]	–	272	> 10	–	–	–	89.5
